Target: T1, EGFR (Homo sapiens, UniProt P00533)
T1 construct: endogenous in cells; host or cells: A431 cells (lysate, captured with SUMO1 anti-EGFR antibody)
Experiment: Biochemical EGFR Assay
Parameters: concentration or dose not given beside the values
Conditions: protocol P.167
How it was run: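 Readout is ABTS absorbance at 410 nm after anti-phosphotyrosine and HRP-antibody detection of EGFR autophosphorylation. The kinase was immunocaptured from A431 lysate, exposed 30 min to test compound diluted 1:10 in TBS, then phosphorylated for 5 min with ATP/MnCl2 before an EDTA stop.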

T1 sequence (P00533 25-1210): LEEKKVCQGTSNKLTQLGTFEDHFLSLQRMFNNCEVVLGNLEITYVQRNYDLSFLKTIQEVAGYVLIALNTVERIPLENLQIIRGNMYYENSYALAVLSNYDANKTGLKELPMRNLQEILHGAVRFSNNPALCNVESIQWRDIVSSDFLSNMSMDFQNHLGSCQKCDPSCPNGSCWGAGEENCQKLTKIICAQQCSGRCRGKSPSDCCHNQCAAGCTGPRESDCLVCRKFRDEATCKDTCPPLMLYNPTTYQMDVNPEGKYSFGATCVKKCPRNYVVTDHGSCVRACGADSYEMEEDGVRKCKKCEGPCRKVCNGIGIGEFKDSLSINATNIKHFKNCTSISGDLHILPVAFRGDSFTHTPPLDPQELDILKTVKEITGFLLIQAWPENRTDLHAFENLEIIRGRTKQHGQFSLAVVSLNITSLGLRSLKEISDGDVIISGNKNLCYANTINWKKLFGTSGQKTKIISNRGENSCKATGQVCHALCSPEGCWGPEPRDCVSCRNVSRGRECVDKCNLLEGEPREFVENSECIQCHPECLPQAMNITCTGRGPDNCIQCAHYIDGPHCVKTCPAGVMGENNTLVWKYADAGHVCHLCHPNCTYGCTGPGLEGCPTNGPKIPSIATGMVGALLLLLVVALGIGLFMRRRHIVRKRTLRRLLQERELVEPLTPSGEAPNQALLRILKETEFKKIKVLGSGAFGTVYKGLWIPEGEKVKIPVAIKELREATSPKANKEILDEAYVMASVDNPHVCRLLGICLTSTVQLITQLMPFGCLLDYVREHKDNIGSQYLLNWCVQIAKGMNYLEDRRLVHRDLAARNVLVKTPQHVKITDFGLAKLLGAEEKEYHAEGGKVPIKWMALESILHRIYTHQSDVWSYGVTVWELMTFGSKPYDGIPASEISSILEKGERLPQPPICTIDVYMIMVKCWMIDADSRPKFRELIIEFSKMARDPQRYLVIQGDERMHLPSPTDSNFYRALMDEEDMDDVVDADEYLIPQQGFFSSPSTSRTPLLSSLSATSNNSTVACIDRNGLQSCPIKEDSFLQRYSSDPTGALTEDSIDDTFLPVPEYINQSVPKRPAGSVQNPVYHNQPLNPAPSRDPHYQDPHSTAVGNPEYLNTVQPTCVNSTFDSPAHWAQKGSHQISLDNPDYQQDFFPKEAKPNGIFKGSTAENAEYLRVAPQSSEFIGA

Compound: Cc1ccc(Oc2cccc(C=C3C(=O)Nc4c(Br)cc(Br)cc43)c2)cc1 [10738/A02]
- Biochem EGFR % Inhibition (P.167): 16.7%

Compound: O=C1Nc2c(Br)cc(Br)cc2C1=Cc1cccc(Oc2ccc(Cl)c(Cl)c2)c1 [10738/A03]
- Biochem EGFR % Inhibition (P.167): 40.5%

Compound: COc1ccc(C=C2C(=O)Nc3c(Br)cc(Br)cc32)cc1O [10738/A04]
- Biochem EGFR % Inhibition (P.167): −17.5%

Compound: O=C1Nc2c(Br)cc(Br)cc2C1=Cc1cc(O)ccc1[N+](=O)[O-] [10738/A05]
- Biochem EGFR % Inhibition (P.167): 33.6%

Compound: O=C1Nc2c(Br)cc(Br)cc2C1=Cc1cccc(O)c1O [10738/A06]
- Biochem EGFR % Inhibition (P.167): 54.9%

Compound: O=C1Nc2c(Br)cc(Br)cc2C1=Cc1cc(O)cc(O)c1 [10738/A07]
- Biochem EGFR % Inhibition (P.167): 4.3%

Compound: O=C1Nc2c(Br)cc(Br)cc2C1=Cc1ccc(Cl)c(Cl)c1 [10738/A08]
- Biochem EGFR % Inhibition (P.167): 6.0%

Compound: COc1ccccc1C=C1C(=O)Nc2c(Br)cc(Br)cc21 [10738/A09]
- Biochem EGFR % Inhibition (P.167): 17.0%

Compound: CC(C)c1ccc(C=C2C(=O)Nc3c(Br)cc(Br)cc32)cc1 [10738/A10]
- Biochem EGFR % Inhibition (P.167): −0.9%

Compound: CCCOc1ccc(C=C2C(=O)Nc3c(Br)cc(Br)cc32)cc1 [10738/A11]
- Biochem EGFR % Inhibition (P.167): 4.5%

Compound: Cc1ccc(Oc2cccc(C=C3C(=O)Nc4ccc(I)cc43)c2)cc1 [10738/B02]
- Biochem EGFR % Inhibition (P.167): −24.4%

Compound: O=C1Nc2ccc(I)cc2C1=Cc1cccc(Oc2ccc(Cl)c(Cl)c2)c1 [10738/B03]
- Biochem EGFR % Inhibition (P.167): 19.2%

Compound: COc1ccc(C=C2C(=O)Nc3ccc(I)cc32)cc1O [10738/B04]
- Biochem EGFR % Inhibition (P.167): 51.2%

Compound: O=C1Nc2ccc(I)cc2C1=Cc1cc(O)ccc1[N+](=O)[O-] [10738/B05]
- Biochem EGFR % Inhibition (P.167): 57.6%

Compound: O=C1Nc2ccc(I)cc2C1=Cc1cccc(O)c1O [10738/B06]
- Biochem EGFR % Inhibition (P.167): 22.9%

Compound: O=C1Nc2ccc(I)cc2C1=Cc1cc(O)cc(O)c1 [10738/B07]
- Biochem EGFR % Inhibition (P.167): 28.7%

Compound: O=C1Nc2ccc(I)cc2C1=Cc1ccc(Cl)c(Cl)c1 [10738/B08]
- Biochem EGFR % Inhibition (P.167): 33.9%

Compound: COc1ccccc1C=C1C(=O)Nc2ccc(I)cc21 [10738/B09]
- Biochem EGFR % Inhibition (P.167): 20.9%

Compound: CC(C)c1ccc(C=C2C(=O)Nc3ccc(I)cc32)cc1 [10738/B10]
- Biochem EGFR % Inhibition (P.167): 37.3%

Compound: CCCOc1ccc(C=C2C(=O)Nc3ccc(I)cc32)cc1 [10738/B11]
- Biochem EGFR % Inhibition (P.167): 18.0%

Compound: Cc1ccc(Oc2cccc(C=C3C(=O)Nc4ccc(Br)c(C)c43)c2)cc1 [10738/C02]
- Biochem EGFR % Inhibition (P.167): −30.5%

Compound: Cc1c(Br)ccc2c1C(=Cc1cccc(Oc3ccc(Cl)c(Cl)c3)c1)C(=O)N2 [10738/C03]
- Biochem EGFR % Inhibition (P.167): 8.2%

Compound: COc1ccc(C=C2C(=O)Nc3ccc(Br)c(C)c32)cc1O [10738/C04]
- Biochem EGFR % Inhibition (P.167): 43.7%

Compound: Cc1c(Br)ccc2c1C(=Cc1cc(O)ccc1[N+](=O)[O-])C(=O)N2 [10738/C05]
- Biochem EGFR % Inhibition (P.167): 18.4%

Compound: Cc1c(Br)ccc2c1C(=Cc1cccc(O)c1O)C(=O)N2 [10738/C06]
- Biochem EGFR % Inhibition (P.167): 28.7%

Compound: Cc1c(Br)ccc2c1C(=Cc1cc(O)cc(O)c1)C(=O)N2 [10738/C07]
- Biochem EGFR % Inhibition (P.167): −19.0%

Compound: Cc1c(Br)ccc2c1C(=Cc1ccc(Cl)c(Cl)c1)C(=O)N2 [10738/C08]
- Biochem EGFR % Inhibition (P.167): −11.9%

Compound: COc1ccccc1C=C1C(=O)Nc2ccc(Br)c(C)c21 [10738/C09]
- Biochem EGFR % Inhibition (P.167): 31.9%

Compound: Cc1c(Br)ccc2c1C(=Cc1ccc(C(C)C)cc1)C(=O)N2 [10738/C10]
- Biochem EGFR % Inhibition (P.167): 5.2%

Compound: CCCOc1ccc(C=C2C(=O)Nc3ccc(Br)c(C)c32)cc1 [10738/C11]
- Biochem EGFR % Inhibition (P.167): −1.1%

Compound: CNS(=O)(=O)c1ccc2c(c1)C(=Cc1cccc(Oc3ccc(C)cc3)c1)C(=O)N2 [10738/D02]
- Biochem EGFR % Inhibition (P.167): 21.4%

Compound: CNS(=O)(=O)c1ccc2c(c1)C(=Cc1cccc(Oc3ccc(Cl)c(Cl)c3)c1)C(=O)N2 [10738/D03]
- Biochem EGFR % Inhibition (P.167): 47.6%

Compound: CNS(=O)(=O)c1ccc2c(c1)C(=Cc1ccc(OC)c(O)c1)C(=O)N2 [10738/D04]
- Biochem EGFR % Inhibition (P.167): 7.4%

Compound: CNS(=O)(=O)c1ccc2c(c1)C(=Cc1cc(O)ccc1[N+](=O)[O-])C(=O)N2 [10738/D05]
- Biochem EGFR % Inhibition (P.167): 4.3%

Compound: CNS(=O)(=O)c1ccc2c(c1)C(=Cc1cccc(O)c1O)C(=O)N2 [10738/D06]
- Biochem EGFR % Inhibition (P.167): 32.4%

Compound: CNS(=O)(=O)c1ccc2c(c1)C(=Cc1cc(O)cc(O)c1)C(=O)N2 [10738/D07]
- Biochem EGFR % Inhibition (P.167): −8.7%

Compound: CNS(=O)(=O)c1ccc2c(c1)C(=Cc1ccc(Cl)c(Cl)c1)C(=O)N2 [10738/D08]
- Biochem EGFR % Inhibition (P.167): 0.6%

Compound: CNS(=O)(=O)c1ccc2c(c1)C(=Cc1ccccc1OC)C(=O)N2 [10738/D09]
- Biochem EGFR % Inhibition (P.167): 12.1%

Compound: CNS(=O)(=O)c1ccc2c(c1)C(=Cc1ccc(C(C)C)cc1)C(=O)N2 [10738/D10]
- Biochem EGFR % Inhibition (P.167): −12.4%

Compound: CCCOc1ccc(C=C2C(=O)Nc3ccc(S(=O)(=O)NC)cc32)cc1 [10738/D11]
- Biochem EGFR % Inhibition (P.167): −13.1%

Compound: Cc1ccc(Oc2cccc(C=C3C(=O)Nc4ccc(S(=O)(=O)Nc5ccc(C(F)(F)F)cc5)cc43)c2)cc1 [10738/E02]
- Biochem EGFR % Inhibition (P.167): 56.1%

Compound: O=C1Nc2ccc(S(=O)(=O)Nc3ccc(C(F)(F)F)cc3)cc2C1=Cc1cccc(Oc2ccc(Cl)c(Cl)c2)c1 [10738/E03]
- Biochem EGFR % Inhibition (P.167): 82.6%

Compound: COc1ccc(C=C2C(=O)Nc3ccc(S(=O)(=O)Nc4ccc(C(F)(F)F)cc4)cc32)cc1O [10738/E04]
- Biochem EGFR % Inhibition (P.167): 13.1%

Compound: O=C1Nc2ccc(S(=O)(=O)Nc3ccc(C(F)(F)F)cc3)cc2C1=Cc1cc(O)ccc1[N+](=O)[O-] [10738/E05]
- Biochem EGFR % Inhibition (P.167): 52.0%

Compound: O=C1Nc2ccc(S(=O)(=O)Nc3ccc(C(F)(F)F)cc3)cc2C1=Cc1cccc(O)c1O [10738/E06]
- Biochem EGFR % Inhibition (P.167): 15.8%

Compound: O=C1Nc2ccc(S(=O)(=O)Nc3ccc(C(F)(F)F)cc3)cc2C1=Cc1cc(O)cc(O)c1 [10738/E07]
- Biochem EGFR % Inhibition (P.167): 57.1%

Compound: O=C1Nc2ccc(S(=O)(=O)Nc3ccc(C(F)(F)F)cc3)cc2C1=Cc1ccc(Cl)c(Cl)c1 [10738/E08]
- Biochem EGFR % Inhibition (P.167): 43.2%

Compound: COc1ccccc1C=C1C(=O)Nc2ccc(S(=O)(=O)Nc3ccc(C(F)(F)F)cc3)cc21 [10738/E09]
- Biochem EGFR % Inhibition (P.167): 35.3%

Compound: CC(C)c1ccc(C=C2C(=O)Nc3ccc(S(=O)(=O)Nc4ccc(C(F)(F)F)cc4)cc32)cc1 [10738/E10]
- Biochem EGFR % Inhibition (P.167): 34.1%

Compound: CCCOc1ccc(C=C2C(=O)Nc3ccc(S(=O)(=O)Nc4ccc(C(F)(F)F)cc4)cc32)cc1 [10738/E11]
- Biochem EGFR % Inhibition (P.167): 15.8%

Compound: Cc1ccc(Oc2cccc(C=C3C(=O)Nc4ccc(S(=O)(=O)N5CCOCC5)cc43)c2)cc1 [10738/F02]
- Biochem EGFR % Inhibition (P.167): 13.1%

Compound: O=C1Nc2ccc(S(=O)(=O)N3CCOCC3)cc2C1=Cc1cccc(Oc2ccc(Cl)c(Cl)c2)c1 [10738/F03]
- Biochem EGFR % Inhibition (P.167): 45.6%

Compound: COc1ccc(C=C2C(=O)Nc3ccc(S(=O)(=O)N4CCOCC4)cc32)cc1O [10738/F04]
- Biochem EGFR % Inhibition (P.167): −6.5%

Compound: O=C1Nc2ccc(S(=O)(=O)N3CCOCC3)cc2C1=Cc1cc(O)ccc1[N+](=O)[O-] [10738/F05]
- Biochem EGFR % Inhibition (P.167): 51.5%

Compound: O=C1Nc2ccc(S(=O)(=O)N3CCOCC3)cc2C1=Cc1cccc(O)c1O [10738/F06]
- Biochem EGFR % Inhibition (P.167): −19.5%

Compound: O=C1Nc2ccc(S(=O)(=O)N3CCOCC3)cc2C1=Cc1cc(O)cc(O)c1 [10738/F07]
- Biochem EGFR % Inhibition (P.167): 9.1%

Compound: O=C1Nc2ccc(S(=O)(=O)N3CCOCC3)cc2C1=Cc1ccc(Cl)c(Cl)c1 [10738/F08]
- Biochem EGFR % Inhibition (P.167): 15.5%

Compound: COc1ccccc1C=C1C(=O)Nc2ccc(S(=O)(=O)N3CCOCC3)cc21 [10738/F09]
- Biochem EGFR % Inhibition (P.167): 0.1%

Compound: CC(C)c1ccc(C=C2C(=O)Nc3ccc(S(=O)(=O)N4CCOCC4)cc32)cc1 [10738/F10]
- Biochem EGFR % Inhibition (P.167): −4.8%

Compound: CCCOc1ccc(C=C2C(=O)Nc3ccc(S(=O)(=O)N4CCOCC4)cc32)cc1 [10738/F11]
- Biochem EGFR % Inhibition (P.167): −14.8%

Compound: Cc1ccc(Oc2cccc(C=C3C(=O)Nc4ccc(CCCl)cc43)c2)cc1 [10738/G02]
- Biochem EGFR % Inhibition (P.167): 19.9%

Compound: O=C1Nc2ccc(CCCl)cc2C1=Cc1cccc(Oc2ccc(Cl)c(Cl)c2)c1 [10738/G03]
- Biochem EGFR % Inhibition (P.167): 31.9%

Compound: COc1ccc(C=C2C(=O)Nc3ccc(CCCl)cc32)cc1O [10738/G04]
- Biochem EGFR % Inhibition (P.167): 12.1%

Compound: O=C1Nc2ccc(CCCl)cc2C1=Cc1cc(O)ccc1[N+](=O)[O-] [10738/G05]
- Biochem EGFR % Inhibition (P.167): 27.3%

Compound: O=C1Nc2ccc(CCCl)cc2C1=Cc1cccc(O)c1O [10738/G06]
- Biochem EGFR % Inhibition (P.167): −8.2%

Compound: O=C1Nc2ccc(CCCl)cc2C1=Cc1cc(O)cc(O)c1 [10738/G07]
- Biochem EGFR % Inhibition (P.167): −1.9%

Compound: O=C1Nc2ccc(CCCl)cc2C1=Cc1ccc(Cl)c(Cl)c1 [10738/G08]
- Biochem EGFR % Inhibition (P.167): 23.6%

Compound: COc1ccccc1C=C1C(=O)Nc2ccc(CCCl)cc21 [10738/G09]
- Biochem EGFR % Inhibition (P.167): 16.7%

Compound: CC(C)c1ccc(C=C2C(=O)Nc3ccc(CCCl)cc32)cc1 [10738/G10]
- Biochem EGFR % Inhibition (P.167): 26.5%
